In patent EP2193713A1, “Method for fighting animal pests without damaging pollinating insects” (Bayer CropScience AG, priority 2008, dated 2010):
Where two headings read alike, the source gives them in different places.

Experiments:
Assay type in all cases: in vivo
Apis mellifera [1] = conditions: for Zahl toter Arbeiterbienen: 150 g a.s./ha
Source text: (§1) Der Test wurde gemäß EPPO (European Plant Protection Organisation) Leitlinie 170 wie folgt durchgeführt:
Die Mortalität von Arbeiterbienen vor dem Bienenstock wird mittels einer Falle für tote Bienen (dead bee trap) bestimmt. Die Falle besteht aus Maschendraht und ist vor dem Bienenstock angebracht. Einzelne, lebende Bienen können die Maschen des Drahts passieren, der Transport toter Bienen durch die Maschen ist nicht möglich, weswegen tote Bienen sich in der Falle ansammeln. Tabelle 1 (siehe auch Figur 1)

Bombus terrestris = test: Tent test / drench application / bumblebees: flight activity at the hive; conditions: for Flugaktivität am Stock, Zahl der Hummeln / 10 min: 20 mg a.s./pl.
Procedure: Der Versuch wurde wie folgt durchgeführt:
Die Zahl der Hummeln, die im Zeitraum von 10 min in den Stock geflogen sind oder diesen verlassen haben wurde bestimmt. Tabelle 7 (siehe auch Figur 7)

Apis mellifera [2] = test: Tunnel test / spray application / bees: brood development (share of comb cells); conditions: for Brutentwicklung: result in words, 75 und 150 g a.s./ha
Source text: as §1
Über alle Waben eines Bienenstocks wird der jeweilige Anteil an Zellen bestimmt, der durch Pollen, Nektar, Eier, Larven oder Puppen belegt ist bzw. leer ist. […]

[3] = 75 g a.s./ha, 1 Tag vor Applikation
[4] = 75 g a.s./ha, 6 Tage nach Applikation
[5] = 75 g a.s./ha, 14 Tage nach Applikation
[6] = 75 g a.s./ha, 27 Tage nach Applikation
[7] = 150 g a.s./ha, 1 Tag vor Applikation
[8] = 150 g a.s./ha, 6 Tage nach Applikation
[9] = 150 g a.s./ha, 14 Tage nach Applikation
[10] = 150 g a.s./ha, 27 Tage nach Applikation

O=C1C=C(N(Cc2ccc(Cl)nc2)CC(F)F)CO1 [I-5, 4-{[(6-Chlorpyrid-3-yl)methyl](2,2-difluorethyl)amino}furan-2(5H)-on]
Zahl toter Arbeiterbienen (Apis mellifera [1]; 2 DAA): 0
Zahl toter Arbeiterbienen (Apis mellifera [1]; 3 DAA): 0
Zahl toter Arbeiterbienen (Apis mellifera [1]; 4 DAA): 1,7
Zahl toter Arbeiterbienen (Apis mellifera [1]; 5 DAA): 0,7
Zahl toter Arbeiterbienen (Apis mellifera [1]; 6 DAA): 2
Zahl toter Arbeiterbienen (Apis mellifera [1]; 11 DAA): 1,7
Zahl toter Arbeiterbienen (Apis mellifera [1]; -3 DAA (before application)): 0,3
Mortalität von Arbeiterbienen vor dem Bienenstock (Apis mellifera [1]; result in words, tunnel test, spray, I-5 75 und 150 g a.s./ha, Thiamethoxam 50 g a.s./ha): keine Mortalität
Flugaktivität am Stock, Zahl der Hummeln / 10 min (Bombus terrestris; 0 DAA): 9 Hummeln / 10 min
Flugaktivität am Stock, Zahl der Hummeln / 10 min (Bombus terrestris; 6 DAA after first application): 11 Hummeln / 10 min
Flugaktivität am Stock, Zahl der Hummeln / 10 min (Bombus terrestris; 8 DAA after first application): 15 Hummeln / 10 min
Flugaktivität am Stock, Zahl der Hummeln / 10 min (Bombus terrestris; 13 DAA after first application): 11 Hummeln / 10 min
Flugaktivität am Stock, Zahl der Hummeln / 10 min (Bombus terrestris; 20 DAA after first application): 12 Hummeln / 10 min
Flugaktivität am Stock, Zahl der Hummeln / 10 min (Bombus terrestris; 23 DAA after first application): 14 Hummeln / 10 min
Flugaktivität am Stock, Zahl der Hummeln / 10 min (Bombus terrestris; 27 DAA after first application): 11 Hummeln / 10 min
Flugaktivität am Stock, Zahl der Hummeln / 10 min (Bombus terrestris; 34 DAA after first application): 6 Hummeln / 10 min
Flugaktivität am Stock, Zahl der Hummeln / 10 min (Bombus terrestris; -1 DAA (before first application)): 13 Hummeln / 10 min
Flugaktivität der Hummeln (Bombus terrestris; result in words, 20 mg a.s. / Pflanze, 2 applications (Tag 0 und Tag 14)): keine Änderung
Anteil an Zellen: Eier (Apis mellifera [2]; [3]): 13,9%
Anteil an Zellen: Larven (Apis mellifera [2]; [3]): 9,2%
Anteil an Zellen: Leer (Apis mellifera [2]; [3]): 26,7%
Anteil an Zellen: Nektar (Apis mellifera [2]; [3]): 12,5%
Anteil an Zellen: Pollen (Apis mellifera [2]; [3]): 3,1%
Anteil an Zellen: Puppen (Apis mellifera [2]; [3]): 34,7%
Anteil an Zellen: Eier (Apis mellifera [2]; [4]): 14,7%
Anteil an Zellen: Larven (Apis mellifera [2]; [4]): 8,3%
Anteil an Zellen: Leer (Apis mellifera [2]; [4]): 32,8%
Anteil an Zellen: Nektar (Apis mellifera [2]; [4]): 12,5%
Anteil an Zellen: Pollen (Apis mellifera [2]; [4]): 4,4%
Anteil an Zellen: Puppen (Apis mellifera [2]; [4]): 27,2%
Anteil an Zellen: Eier (Apis mellifera [2]; [5]): 21,4%
Anteil an Zellen: Larven (Apis mellifera [2]; [5]): 19,7%
Anteil an Zellen: Leer (Apis mellifera [2]; [5]): 30,6%
Anteil an Zellen: Nektar (Apis mellifera [2]; [5]): 8,6%
Anteil an Zellen: Pollen (Apis mellifera [2]; [5]): 5%
Anteil an Zellen: Puppen (Apis mellifera [2]; [5]): 14,7%
Anteil an Zellen: Eier (Apis mellifera [2]; [6]): 16,7%
Anteil an Zellen: Larven (Apis mellifera [2]; [6]): 6,7%
Anteil an Zellen: Leer (Apis mellifera [2]; [6]): 20,7%
Anteil an Zellen: Nektar (Apis mellifera [2]; [6]): 13,2%
Anteil an Zellen: Pollen (Apis mellifera [2]; [6]): 3,3%
Anteil an Zellen: Puppen (Apis mellifera [2]; [6]): 39,4%
Anteil an Zellen: Eier (Apis mellifera [2]; [7]): 13,6%
Anteil an Zellen: Larven (Apis mellifera [2]; [7]): 16,4%
Anteil an Zellen: Leer (Apis mellifera [2]; [7]): 20,8%
Anteil an Zellen: Nektar (Apis mellifera [2]; [7]): 14,2%
Anteil an Zellen: Pollen (Apis mellifera [2]; [7]): 1,4%
Anteil an Zellen: Puppen (Apis mellifera [2]; [7]): 33,6%
Anteil an Zellen: Eier (Apis mellifera [2]; [8]): 15%
Anteil an Zellen: Larven (Apis mellifera [2]; [8]): 6,1%
Anteil an Zellen: Leer (Apis mellifera [2]; [8]): 29,4%
Anteil an Zellen: Nektar (Apis mellifera [2]; [8]): 14,4%
Anteil an Zellen: Pollen (Apis mellifera [2]; [8]): 3,9%
Anteil an Zellen: Puppen (Apis mellifera [2]; [8]): 31,1%
Anteil an Zellen: Eier (Apis mellifera [2]; [9]): 17,8%
Anteil an Zellen: Larven (Apis mellifera [2]; [9]): 16,7%
Anteil an Zellen: Leer (Apis mellifera [2]; [9]): 34,4%
Anteil an Zellen: Nektar (Apis mellifera [2]; [9]): 12,2%
Anteil an Zellen: Pollen (Apis mellifera [2]; [9]): 4,2%
Anteil an Zellen: Puppen (Apis mellifera [2]; [9]): 14,7%
Anteil an Zellen: Eier (Apis mellifera [2]; [10]): 15,3%
Anteil an Zellen: Larven (Apis mellifera [2]; [10]): 7,2%
Anteil an Zellen: Leer (Apis mellifera [2]; [10]): 21,9%
Anteil an Zellen: Nektar (Apis mellifera [2]; [10]): 16,4%
Anteil an Zellen: Pollen (Apis mellifera [2]; [10]): 4,2%
Anteil an Zellen: Puppen (Apis mellifera [2]; [10]): 35%
Brutentwicklung (Apis mellifera [2]; 6 Tage nach Applikation): keine Änderung
Brutentwicklung (Apis mellifera [2]; 14 Tage nach Applikation): keine Änderung
Brutentwicklung (Apis mellifera [2]; 27 Tage nach Applikation): keine Änderung
